# Experimental data: patent publication US20230026856A1, “HETEROCYCLIC COMPOUNDS AND METHODS OF USE THEREOF” (SPARCBIO LLC, priority 2020, published 2023)
# Biological target: KRAS G12C protein (Homo sapiens, UniProt P01116, G12C)
# Test: Nucleotide exchange assay, Method III (TR-FRET, association of KRAS G12C with Raf-RBD, SOS1-mediated exchange)
# Assay type: biochemical
# Conditions: overnight (18 hr) incubation with GDP-bound KRAS G12C
# Method: Method III. Inhibition of SOS1-mediated exchange of GDP for GTP on the KRAS G12C protein was measured in a biochemical assay that monitors association of KRAS G12C protein with the Ras-binding domain of Raf (Raf-RBD), where the association is coupled to exchange of GDP to GTP on the KRAS G12C protein. The assay was performed at WuXi AppTec (Shanghai, China). Compounds were serially diluted in 3-fold dilutions to 11 concentrations and spotted into the wells of an assay plate in a total volume of 150 nL DMSO per well. A 2× enzyme mix was prepared by diluting GDP-bound, His-tagged KRAS G12C to 25 nM in assay buffer. 10 μL/well of 2× enzyme mix was added to all wells, and the plate was sealed and incubated overnight (18 hr) at 23° C. 4×SOS1/GDP and 4×SOS1/GTP were prepared in assay buffer. 5 μL/well of 4×SOS1/GDP mix was added to negative control wells, 5 μL/well of 4×SOS1/GTP mix was added to the remaining wells, and the plate was further incubated at 23° C. for 1 hr. Finally, FLAG-tagged Raf-RBD is added to the reaction mixture along with a pair of FRET donor- and acceptor-conjugated antibodies specific for the FLAG-tagged Raf-RBD and His-tagged KRAS G12C proteins. A 4× Raf-RBD/Tb-anti-FLAG/D2-anti-His mix was prepared in assay buffer, and 5 μL/well of the mix was added to all wells, followed by incubation at room temperature for 2 hr. The TR-FRET signals, which increase with association of KRAS G12C and Raf-RBD, were measured on a Perkin Elmer Envision 2104 plate reader, and data were analyzed by non-linear regression to obtain IC50 values for inhibition by compounds. Table 2 includes results of the assay of Method III. ‘+++’ indicates IC50 values ≤300 nM, ‘++’ indicates IC50 values between 300 nM-3 μM, and ‘+’ indicates IC50 values ≥3 μM.
# Chain of KRAS G12C protein (P01116 1-188 isoform P01116-2 G12C): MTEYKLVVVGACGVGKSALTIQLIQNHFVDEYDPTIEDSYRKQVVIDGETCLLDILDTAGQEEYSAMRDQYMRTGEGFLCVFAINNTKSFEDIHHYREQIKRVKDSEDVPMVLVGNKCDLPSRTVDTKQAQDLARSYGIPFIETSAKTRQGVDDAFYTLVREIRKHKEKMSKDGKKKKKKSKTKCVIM
row,Compound,IC50
1,"C=CC(=O)N1CCN(c2c(C(=O)NC)c(=O)n(-c3c(C)ccnc3C(C)C)c3nc(-c4c(C)ccc5[nH]ncc45)c(F)cc23)C[C@H]1C (single isomer, unassigned) [114 (Isomer A)]",300 to 3000 nM
2,"C=CC(=O)N1CCN(c2c(S(C)(=O)=O)c(=O)n(-c3c(C)ccnc3C(C)C)c3c(F)c(-c4c(O)cccc4F)c(Cl)cc23)CC1 (single isomer, unassigned) [176 (Isomer B), 4-(4-acryloylpiperazin-1-yl)-6-chloro-8-fluoro-7-(2-fluoro-6-hydroxyphenyl)-1-(2-isopropyl-4-methylpyridin-3-yl)-3-(methylsulfonyl)quinolin-2(1H)-one]",≤ 300 nM
3,"C=CC(=O)N1CCN(c2c(S(C)(=O)=O)c(=O)n(-c3c(C)ccnc3C(C)C)c3nc(-c4c(C)ccc5[nH]ncc45)c(F)cc23)CC1 (single isomer, unassigned) [124 (Isomer B), 4-(4-acryloylpiperazin-1-yl)-6-fluoro-1-(2-isopropyl-4-methylpyridin-3-yl)-7-(5-methyl-1H-indazol-4-yl)-3-(methylsulfonyl)-1,8-naphthyridin-2(1H)-one]",≥ 3000 nM
4,"C=CC(=O)N1CCN(c2c(C(=O)NC)c(=O)n(-c3c(C)ccnc3C(C)C)c3nc(-c4c(C)ccc5[nH]ncc45)c(F)cc23)C[C@H]1C (single isomer, unassigned) [114 (Isomer B)]",≤ 300 nM
5,"C=CC(=O)N1CCN(c2c(S(C)(=O)=O)c(=O)n(-c3c(C)ccnc3C(C)C)c3nc(-c4c(O)cccc4F)c(F)cc23)C[C@H]1C (single isomer, unassigned) [143 (Isomer B)]",≤ 300 nM
6,"C=CC(=O)N1CCN(c2c(C(=O)NC)c(=O)n(-c3c(C)ccnc3C(C)C)c3nc(-c4c(O)cccc4F)c(F)cc23)C[C@@H]1CC#N (single isomer, unassigned) [80 (Isomer B)]",300 to 3000 nM
7,"C=CC(=O)N1CCC(n2c(=O)c(=O)n(-c3c(C)ccnc3C(C)C)c3nc(-c4c(O)cccc4F)c(F)cc32)C(C)C1 (single isomer, unassigned) [294 (Isomer A), 1-(1-acryloyl-3-methylpiperidin-4-yl)-7-fluoro-6-(2-fluoro-6-hydroxyphenyl)-4-(2-isopropyl-4-methylpyridin-3-yl)-1,4-dihydropyrido[2,3-b]pyrazine-2,3-dione]",≥ 3000 nM
8,"C=CC(=O)N1CCN(c2c(S(C)(=O)=O)c(=O)n(-c3c(C)ccnc3C(C)C)c3c(F)c(-c4cccc5sc(N)nc45)c(Cl)cc23)CC1 (single isomer, unassigned) [252 (Isomer B), 4-(4-acryloylpiperazin-1-yl)-7-(2-aminobenzo[d]thiazol-4-yl)-6-chloro-8-fluoro-1-(2-isopropyl-4-methylpyridin-3-yl)-3-(methylsulfonyl)quinolin-2(1H)-one]",≤ 300 nM
9,"C=CC(=O)N1CCC(n2c(=O)c(=O)n(-c3c(C)ccnc3C(C)C)c3nc(-c4c(O)cccc4F)c(F)cc32)C[C@H]1C (single isomer, unassigned) [2 (Isomer A)]",≥ 3000 nM
10,"C=CC(=O)N1CCN(c2c(C(=O)NC)c(=O)n(-c3c(C)ccnc3C(C)C)c3nc(-c4c(C)ccc5[nH]ncc45)c(F)cc23)CC1 (single isomer, unassigned) [116 (Isomer B), 4-(4-acryloylpiperazin-1-yl)-6-fluoro-1-(2-isopropyl-4-methylpyridin-3-yl)-N-methyl-7-(5-methyl-1H-indazol-4-yl)-2-oxo-1,2-dihydro-1,8-naphthyridine-3-carboxamide]",300 to 3000 nM
11,"C=CC(=O)N1CCN(c2c(S(C)(=O)=O)c(=O)n(-c3c(C)ccnc3C(C)C)c3c(F)c(-c4c(O)cccc4F)c(Cl)cc23)CC1 (single isomer, unassigned) [176 (Isomer C), 4-(4-acryloylpiperazin-1-yl)-6-chloro-8-fluoro-7-(2-fluoro-6-hydroxyphenyl)-1-(2-isopropyl-4-methylpyridin-3-yl)-3-(methylsulfonyl)quinolin-2(1H)-one]",300 to 3000 nM
12,"C=CC(=O)N1CCC(n2c(=O)c(=O)n(-c3c(C)ccnc3C(C)C)c3nc(-c4c(O)cccc4F)c(F)cc32)C[C@@H]1C (single isomer, unassigned) [4 (Isomer B)]",≥ 3000 nM
13,"C=CC(=O)N1CCN(c2c(C(=O)NC)c(=O)n(-c3c(C)ccnc3C(C)C)c3nc(-c4c(O)cccc4F)c(F)cc23)[C@@H](C)C1 (single isomer, unassigned) [76 (Isomer B)]",≥ 3000 nM
14,"C=CC(=O)N1CCN(c2c(S(C)(=O)=O)c(=O)n(-c3c(C)ccnc3C(C)C)c3nc(-c4c(O)cccc4F)c(F)cc23)CC1 (single isomer, unassigned) [123 (Isomer B), 4-(4-acryloylpiperazin-1-yl)-6-fluoro-7-(2-fluoro-6-hydroxyphenyl)-1-(2-isopropyl-4-methylpyridin-3-yl)-3-(methylsulfonyl)-1,8-naphthyridin-2(1H)-one]",300 to 3000 nM
15,"C=CC(=O)N1CCC(c2c(C(=O)NC)c(=O)n(-c3c(C)ccnc3C(C)C)c3nc(-c4c(O)cccc4F)c(F)cc23)CC1 (single isomer, unassigned) [68 (Isomer A), 4-(1-acryloylpiperidin-4-yl)-6-fluoro-7-(2-fluoro-6-hydroxyphenyl)-1-(2-isopropyl-4-methylpyridin-3-yl)-N-methyl-2-oxo-1,2-dihydro-1,8-naphthyridine-3-carboxamide]",300 to 3000 nM
16,"C=CC(=O)N1CCN(c2c(C(=O)NC)c(=O)n(-c3c(C)ccnc3C(C)C)c3nc(-c4cccc5sc(N)nc45)c(F)cc23)C[C@H]1C (single isomer, unassigned) [253 (Isomer A)]",≤ 300 nM
17,"C=CC(=O)N1CCC(c2c(C(=O)NC)c(=O)n(-c3c(C)ccnc3C(C)C)c3nc(-c4c(O)cccc4F)c(F)cc23)CC1 (single isomer, unassigned) [68 (Isomer B), 4-(1-acryloylpiperidin-4-yl)-6-fluoro-7-(2-fluoro-6-hydroxyphenyl)-1-(2-isopropyl-4-methylpyridin-3-yl)-N-methyl-2-oxo-1,2-dihydro-1,8-naphthyridine-3-carboxamide]",≥ 3000 nM
18,"C=CC(=O)N1CCN(c2c(S(C)(=O)=O)c(=O)n(-c3c(C)ccnc3C(C)C)c3c(F)c(-c4cccc5sc(N)nc45)c(Cl)cc23)CC1 (single isomer, unassigned) [252 (Isomer A), 4-(4-acryloylpiperazin-1-yl)-7-(2-aminobenzo[d]thiazol-4-yl)-6-chloro-8-fluoro-1-(2-isopropyl-4-methylpyridin-3-yl)-3-(methylsulfonyl)quinolin-2(1H)-one]",≤ 300 nM
19,"C=CC(=O)N1CCN(c2c(S(C)(=O)=O)c(=O)n(-c3c(C)ccnc3C(C)C)c3nc(-c4cccc5sc(N)nc45)c(F)cc23)C[C@H]1C (single isomer, unassigned) [249 (Isomer B)]",300 to 3000 nM
20,"C=CC(=O)N1CCN(c2c(S(C)(=O)=O)c(=O)n(-c3c(C)ccnc3C(C)C)c3nc(-c4c(O)cccc4F)c(F)cc23)C[C@H]1C (single isomer, unassigned) [143 (Isomer A)]",300 to 3000 nM
21,"C=CC(=O)N1CCN(c2c(S(C)(=O)=O)c(=O)n(-c3c(C)ccnc3C(C)C)c3c(F)c(-c4c(C)ccc5[nH]ncc45)c(Cl)cc23)CC1 (single isomer, unassigned) [187 (Isomer B), 4-(4-acryloylpiperazin-1-yl)-6-chloro-8-fluoro-1-(2-isopropyl-4-methylpyridin-3-yl)-7-(5-methyl-1H-indazol-4-yl)-3-(methylsulfonyl)quinolin-2(1H)-one]",≤ 300 nM
22,"C=CC(=O)N1CCN(c2c(C(=O)NC)c(=O)n(-c3c(C)ccnc3C(C)C)c3nc(-c4cccc5sc(N)nc45)c(F)cc23)CC1 (single isomer, unassigned) [254 (Isomer B), 4-(4-acryloylpiperazin-1-yl)-7-(2-aminobenzo[d]thiazol-4-yl)-6-fluoro-1-(2-isopropyl-4-methylpyridin-3-yl)-N-methyl-2-oxo-1,2-dihydro-1,8-naphthyridine-3-carboxamide]",≤ 300 nM
23,"C=CC(=O)N1CCN(c2c(S(C)(=O)=O)c(=O)n(-c3c(C)ccnc3C(C)C)c3c(F)c(-c4c(C)ccc5[nH]ncc45)c(Cl)cc23)CC1 (single isomer, unassigned) [187 (Isomer D), 4-(4-acryloylpiperazin-1-yl)-6-chloro-8-fluoro-1-(2-isopropyl-4-methylpyridin-3-yl)-7-(5-methyl-1H-indazol-4-yl)-3-(methylsulfonyl)quinolin-2(1H)-one]",≥ 3000 nM
24,"C=CC(=O)N1CCN(c2c(S(C)(=O)=O)c(=O)n(-c3c(C)ccnc3C(C)C)c3c(F)c(-c4c(C)ccc5[nH]ncc45)c(Cl)cc23)CC1 (single isomer, unassigned) [187 (Isomer A), 4-(4-acryloylpiperazin-1-yl)-6-chloro-8-fluoro-1-(2-isopropyl-4-methylpyridin-3-yl)-7-(5-methyl-1H-indazol-4-yl)-3-(methylsulfonyl)quinolin-2(1H)-one]",300 to 3000 nM
